Results: ChEMBL document CHEMBL5523718, “Design, synthesis, molecular modeling, in vitro and in vivo biological evaluation of potent anthranilamide derivatives as dual P-glycoprotein and CYP3A4 inhibitors” (Eur J Med Chem, 2024)

Legend:
[1] = biological target: T1, P-gp (ABCB1) (Homo sapiens, UniProt P08183); test: Inhibition of P-gp in human Caco-2 cells at 0.1 uM in presence of paclitaxel relative to control; format: cell-based; settings: Caco-2, probe paclitaxel
[2] = biological target: T2, ATP-dependent translocase ABCB1 (Homo sapiens, UniProt P08183); test: Inhibition of P-gp in human Caco-2 cells in presence of paclitaxel; format: cell-based
[3] = Tlast in CD-1 mouse at 5 mg/kg, iv measured upto 8 hrs by LC-MS/MS analysis; format: ADME, organism-based; settings: in vivo
[4] = test system: MES-SA/Dx5; test: Cytotoxicity against human MES-SA/Dx5 cells at 1.28 uM incubated for 3 days by MTT assay relative to control; format: functional; settings: time 3 day
[5] = biological target: T2, ATP-dependent translocase ABCB1; test: Inhibition of P-gp in human MES-SA/Dx5 cells; format: cell-based
[6] = biological target: T3, Cytochrome P450 2B6 (Homo sapiens, UniProt P20813); test: Inhibition of CYP2B6 (unknown origin) using Bupropion as substrate; format: ADME
T3 sequence (P20813 whole entry): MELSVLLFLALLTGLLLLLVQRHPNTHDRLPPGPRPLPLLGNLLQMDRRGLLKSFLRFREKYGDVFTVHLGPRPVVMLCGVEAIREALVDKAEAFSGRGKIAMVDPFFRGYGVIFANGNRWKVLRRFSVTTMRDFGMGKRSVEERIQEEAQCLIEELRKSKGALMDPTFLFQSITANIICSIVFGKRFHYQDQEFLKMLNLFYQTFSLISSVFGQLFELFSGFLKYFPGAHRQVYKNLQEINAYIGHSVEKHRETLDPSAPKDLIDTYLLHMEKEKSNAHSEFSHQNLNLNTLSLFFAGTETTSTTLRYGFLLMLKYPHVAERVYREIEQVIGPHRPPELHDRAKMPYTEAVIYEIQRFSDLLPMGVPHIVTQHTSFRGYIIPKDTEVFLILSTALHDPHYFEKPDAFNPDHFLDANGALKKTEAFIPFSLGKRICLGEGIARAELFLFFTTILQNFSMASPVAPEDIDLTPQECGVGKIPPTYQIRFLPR

[7] = biological target: T4, Cytochrome P450 2C8 (Homo sapiens, UniProt P10632); test: Inhibition of CYP2C8 (unknown origin) using Amodiaquine as substrate; format: ADME
T4 sequence (P10632 whole entry): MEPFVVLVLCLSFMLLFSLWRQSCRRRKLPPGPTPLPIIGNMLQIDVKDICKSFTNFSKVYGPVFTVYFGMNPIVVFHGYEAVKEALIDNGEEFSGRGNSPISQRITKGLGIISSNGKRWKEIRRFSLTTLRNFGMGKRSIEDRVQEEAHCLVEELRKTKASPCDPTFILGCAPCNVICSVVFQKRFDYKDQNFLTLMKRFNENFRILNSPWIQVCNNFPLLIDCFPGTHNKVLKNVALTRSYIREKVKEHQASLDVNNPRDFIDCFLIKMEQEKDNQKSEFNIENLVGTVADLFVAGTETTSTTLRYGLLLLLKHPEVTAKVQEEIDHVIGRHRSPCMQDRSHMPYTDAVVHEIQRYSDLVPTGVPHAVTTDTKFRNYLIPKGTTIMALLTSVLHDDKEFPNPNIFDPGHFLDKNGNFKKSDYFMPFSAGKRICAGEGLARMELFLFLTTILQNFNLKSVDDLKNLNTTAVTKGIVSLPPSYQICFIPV

[8] = Metabolic stability in monkey liver microsome assessed as intrinsic clearance; format: ADME, Macaca mulatta; settings: rhesus monkey, microsomes
[9] = Inhibition of CYP3A4 in mouse liver using luciferin-IPA as substrate microsome preincubated with compound for 10 mins followed by NADPH addition and measured after 5 mins; format: ADME, microsomes
[10] = biological target: ATP-binding cassette sub-family C member 2 (Homo sapiens, UniProt Q92887); test: Inhibition of MRP2 (unknown origin) ATPase activity
[11] = Metabolic stability in mouse liver microsome assessed as intrinsic clearance; format: ADME; settings: microsomes
[12] = biological target: T1, P-gp (ABCB1); test: Inhibition of P-gp in human Caco-2 cells at 1 uM in presence of paclitaxel relative to control; format: cell-based; settings: Caco-2, probe paclitaxel
[13] = biological target: T1, P-gp (ABCB1); test: Inhibition of P-gp in human Caco-2 cells at 10 uM in presence of paclitaxel relative to control; format: cell-based; settings: Caco-2, probe paclitaxel
[14] = Metabolic stability in rat liver microsome assessed as intrinsic clearance; format: ADME; settings: microsomes
[15] = biological target: T1, P-gp (ABCB1); test: Inhibition of P-gp in human Caco-2 cells at 0.01 uM in presence of paclitaxel relative to control; format: cell-based; settings: Caco-2, probe paclitaxel
[16] = Metabolic stability in human liver microsome assessed as half life; format: ADME; settings: liver microsomes
[17] = biological target: Cytochrome P450 2C19 (Homo sapiens, UniProt P33261); test: Inhibition of CYP2C19 (unknown origin) using S-mephenytoin as substrate; format: ADME
[18] = biological target: T1, P-gp (ABCB1); test: Inhibition of P-gp in human Caco-2 cells at 5 uM in presence of paclitaxel relative to control; format: cell-based; settings: Caco-2, probe paclitaxel
[19] = biological target: Cytochrome P450 2C9 (Homo sapiens, UniProt P11712); test: Inhibition of CYP2C9 (unknown origin) using Diclofenac as substrate; format: ADME
[20] = Inhibition of CYP3A4 in rat liver using luciferin-IPA as substrate microsome preincubated with compound for 10 mins followed by NADPH addition and measured after 5 mins; format: ADME, microsomes
[21] = biological target: T2, ATP-dependent translocase ABCB1; test: Inhibition of P-gp (unknown origin) ATPase activity
[22] = C0 in CD-1 mouse at 5 mg/kg, iv measured upto 8 hrs by LC-MS/MS analysis; format: ADME, organism-based; settings: in vivo
[23] = biological target: T5, Broad substrate specificity ATP-binding cassette transporter ABCG2 (Homo sapiens, UniProt Q9UNQ0); test: Inhibition of BCRP (unknown origin) ATPase activity
T5 sequence (Q9UNQ0 whole entry): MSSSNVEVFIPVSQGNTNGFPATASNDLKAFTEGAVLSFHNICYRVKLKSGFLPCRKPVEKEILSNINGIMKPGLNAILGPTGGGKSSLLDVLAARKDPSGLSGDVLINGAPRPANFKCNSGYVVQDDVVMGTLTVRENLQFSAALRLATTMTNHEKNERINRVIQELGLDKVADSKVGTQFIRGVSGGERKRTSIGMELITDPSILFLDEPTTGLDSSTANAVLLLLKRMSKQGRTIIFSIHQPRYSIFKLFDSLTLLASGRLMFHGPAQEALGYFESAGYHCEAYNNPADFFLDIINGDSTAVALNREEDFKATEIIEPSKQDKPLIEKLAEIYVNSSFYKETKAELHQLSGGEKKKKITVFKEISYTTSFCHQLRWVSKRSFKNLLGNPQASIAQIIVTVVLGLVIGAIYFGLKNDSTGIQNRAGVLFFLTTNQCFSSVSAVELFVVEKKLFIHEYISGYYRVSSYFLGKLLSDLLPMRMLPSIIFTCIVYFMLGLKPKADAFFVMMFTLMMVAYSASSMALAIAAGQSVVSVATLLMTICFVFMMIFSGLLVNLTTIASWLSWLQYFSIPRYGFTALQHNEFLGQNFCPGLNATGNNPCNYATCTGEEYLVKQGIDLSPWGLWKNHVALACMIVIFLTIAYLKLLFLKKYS

[24] = biological target: Cytochrome P450 2D6 (Homo sapiens, UniProt P10635); test: Inhibition of CYP2D6 (unknown origin) using Bufuralol as substrate; format: ADME
[25] = Apparent permeability of compound across basolateral to apical side in human Caco-2 cells; format: ADME, cell-based

T1 sequence (P08183 whole entry): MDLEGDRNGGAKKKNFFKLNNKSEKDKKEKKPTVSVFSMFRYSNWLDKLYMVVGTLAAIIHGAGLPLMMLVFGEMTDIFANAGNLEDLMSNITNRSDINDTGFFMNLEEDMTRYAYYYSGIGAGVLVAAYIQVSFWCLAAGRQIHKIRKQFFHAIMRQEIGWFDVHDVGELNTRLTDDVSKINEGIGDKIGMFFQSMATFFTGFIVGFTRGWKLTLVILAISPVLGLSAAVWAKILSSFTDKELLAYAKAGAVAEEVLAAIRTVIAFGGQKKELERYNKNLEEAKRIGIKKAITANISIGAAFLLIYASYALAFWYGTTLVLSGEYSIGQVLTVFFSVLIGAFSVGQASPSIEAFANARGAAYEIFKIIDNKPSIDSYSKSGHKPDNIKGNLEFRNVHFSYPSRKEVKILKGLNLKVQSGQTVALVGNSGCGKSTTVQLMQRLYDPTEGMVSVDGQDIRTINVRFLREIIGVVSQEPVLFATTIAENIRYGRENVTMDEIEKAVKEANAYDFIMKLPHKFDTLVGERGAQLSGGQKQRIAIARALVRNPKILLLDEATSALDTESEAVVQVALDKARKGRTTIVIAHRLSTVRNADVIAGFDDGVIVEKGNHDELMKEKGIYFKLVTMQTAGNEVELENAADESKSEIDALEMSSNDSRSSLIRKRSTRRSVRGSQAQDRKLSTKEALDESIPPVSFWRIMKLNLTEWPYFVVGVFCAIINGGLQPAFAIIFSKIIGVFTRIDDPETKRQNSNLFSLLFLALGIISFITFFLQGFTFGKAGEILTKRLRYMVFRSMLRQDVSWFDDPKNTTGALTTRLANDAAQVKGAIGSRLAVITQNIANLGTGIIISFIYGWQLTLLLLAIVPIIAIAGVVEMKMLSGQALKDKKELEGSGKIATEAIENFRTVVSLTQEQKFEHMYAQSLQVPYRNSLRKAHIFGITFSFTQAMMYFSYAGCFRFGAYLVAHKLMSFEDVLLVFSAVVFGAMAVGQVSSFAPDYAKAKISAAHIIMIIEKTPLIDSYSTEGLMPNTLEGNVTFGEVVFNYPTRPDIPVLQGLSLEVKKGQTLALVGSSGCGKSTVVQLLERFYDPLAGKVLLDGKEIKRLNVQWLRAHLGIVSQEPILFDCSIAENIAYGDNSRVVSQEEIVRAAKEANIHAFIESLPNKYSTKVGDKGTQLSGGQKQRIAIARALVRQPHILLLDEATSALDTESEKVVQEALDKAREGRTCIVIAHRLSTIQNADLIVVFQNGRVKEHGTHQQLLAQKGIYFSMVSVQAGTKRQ
T2 sequence (P08183 whole entry): as above
Sequence of ATP-binding cassette sub-family C member 2 (Q92887 whole entry): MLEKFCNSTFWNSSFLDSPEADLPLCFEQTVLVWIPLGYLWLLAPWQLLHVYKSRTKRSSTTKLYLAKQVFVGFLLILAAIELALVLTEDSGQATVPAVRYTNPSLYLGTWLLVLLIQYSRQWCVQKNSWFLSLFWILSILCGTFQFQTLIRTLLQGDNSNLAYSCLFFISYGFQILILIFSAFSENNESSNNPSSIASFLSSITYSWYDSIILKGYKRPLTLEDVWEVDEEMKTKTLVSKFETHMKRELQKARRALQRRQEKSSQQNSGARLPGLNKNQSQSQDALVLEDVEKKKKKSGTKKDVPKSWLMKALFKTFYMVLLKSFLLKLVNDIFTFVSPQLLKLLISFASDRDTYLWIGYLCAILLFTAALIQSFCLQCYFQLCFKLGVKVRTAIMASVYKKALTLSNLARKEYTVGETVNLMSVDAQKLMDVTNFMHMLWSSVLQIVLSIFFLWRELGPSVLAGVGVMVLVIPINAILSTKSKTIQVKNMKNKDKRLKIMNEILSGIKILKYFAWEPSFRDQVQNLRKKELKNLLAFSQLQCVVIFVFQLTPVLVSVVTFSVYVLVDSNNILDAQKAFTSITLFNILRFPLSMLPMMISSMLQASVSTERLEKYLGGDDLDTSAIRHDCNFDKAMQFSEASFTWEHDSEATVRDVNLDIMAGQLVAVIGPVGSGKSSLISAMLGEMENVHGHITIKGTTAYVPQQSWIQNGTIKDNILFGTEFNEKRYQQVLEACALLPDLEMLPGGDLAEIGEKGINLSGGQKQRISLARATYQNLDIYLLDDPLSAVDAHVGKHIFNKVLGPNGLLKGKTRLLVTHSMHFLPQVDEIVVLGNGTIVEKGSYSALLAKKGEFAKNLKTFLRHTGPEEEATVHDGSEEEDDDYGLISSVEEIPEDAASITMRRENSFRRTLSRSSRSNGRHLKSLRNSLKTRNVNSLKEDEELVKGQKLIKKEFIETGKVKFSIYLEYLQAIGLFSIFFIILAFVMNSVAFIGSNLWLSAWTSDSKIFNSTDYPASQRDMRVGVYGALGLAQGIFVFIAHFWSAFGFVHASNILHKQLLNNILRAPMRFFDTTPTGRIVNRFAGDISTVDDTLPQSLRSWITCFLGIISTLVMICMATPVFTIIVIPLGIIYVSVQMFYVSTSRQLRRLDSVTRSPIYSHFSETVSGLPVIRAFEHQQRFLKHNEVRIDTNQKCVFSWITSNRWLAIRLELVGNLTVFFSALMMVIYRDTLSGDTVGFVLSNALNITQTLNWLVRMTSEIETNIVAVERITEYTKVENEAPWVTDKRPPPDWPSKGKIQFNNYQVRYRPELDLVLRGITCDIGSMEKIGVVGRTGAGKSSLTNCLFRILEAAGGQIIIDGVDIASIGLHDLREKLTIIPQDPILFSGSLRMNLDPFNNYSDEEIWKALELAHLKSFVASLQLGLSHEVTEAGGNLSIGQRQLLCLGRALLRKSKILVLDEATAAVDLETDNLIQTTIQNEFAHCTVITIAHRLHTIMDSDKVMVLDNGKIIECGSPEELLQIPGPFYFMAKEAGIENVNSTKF
Sequence of Cytochrome P450 2C19 (P33261 whole entry): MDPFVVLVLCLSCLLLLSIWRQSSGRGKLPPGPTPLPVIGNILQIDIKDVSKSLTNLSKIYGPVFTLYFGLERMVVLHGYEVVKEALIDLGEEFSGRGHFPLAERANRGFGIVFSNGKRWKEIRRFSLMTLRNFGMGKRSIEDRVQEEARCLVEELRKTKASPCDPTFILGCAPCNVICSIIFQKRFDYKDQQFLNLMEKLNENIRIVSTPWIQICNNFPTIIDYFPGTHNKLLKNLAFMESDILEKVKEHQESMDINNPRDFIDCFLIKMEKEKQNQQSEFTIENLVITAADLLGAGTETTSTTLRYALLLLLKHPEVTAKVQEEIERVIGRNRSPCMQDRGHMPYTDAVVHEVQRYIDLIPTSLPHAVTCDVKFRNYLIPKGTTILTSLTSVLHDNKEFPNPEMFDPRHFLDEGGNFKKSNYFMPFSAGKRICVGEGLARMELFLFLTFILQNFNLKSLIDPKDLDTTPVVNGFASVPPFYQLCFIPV
Sequence of Cytochrome P450 2C9 (P11712 whole entry): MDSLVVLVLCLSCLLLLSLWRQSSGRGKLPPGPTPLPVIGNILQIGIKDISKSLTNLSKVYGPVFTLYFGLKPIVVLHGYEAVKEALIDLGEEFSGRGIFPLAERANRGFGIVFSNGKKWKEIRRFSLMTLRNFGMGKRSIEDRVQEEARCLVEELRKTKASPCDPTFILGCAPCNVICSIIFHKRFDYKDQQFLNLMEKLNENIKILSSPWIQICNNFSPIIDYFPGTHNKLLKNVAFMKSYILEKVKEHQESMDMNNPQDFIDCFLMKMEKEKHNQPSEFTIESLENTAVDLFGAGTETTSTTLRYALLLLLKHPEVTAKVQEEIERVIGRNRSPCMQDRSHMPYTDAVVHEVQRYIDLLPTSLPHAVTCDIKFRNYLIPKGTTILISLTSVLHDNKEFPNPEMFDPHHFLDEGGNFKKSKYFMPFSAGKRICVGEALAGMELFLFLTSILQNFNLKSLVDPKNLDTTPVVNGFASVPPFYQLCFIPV

SMILES: COc1cc(NC(=O)c2cc(=O)c3ccccc3o2)c(C(=O)Nc2ccc(C3CCN(Cc4cccc(-n5ccnc5)c4)CC3)cc2)cc1OC
- inhibition at 0.1 µM [1]: 89%
- IC50 [2]: 0.009 µM
- Tlast [3]: 4.8 h
- Activity [4]: 0%
- EC50 [5]: 0.028 µM
- IC50 [6]: 36 µM
- IC50 [7]: 11 µM
- CLH [8]: 280 µL/min/mg
- IC50 [9]: 0.089 µM
- IC50 [10]: > 10 µM
- CLH [11]: 38 µL/min/mg
- inhibition at 1 µM [12]: 97%
- inhibition at 10 µM [13]: 99%
- CLH [14]: 95 µL/min/mg
- inhibition at 0.01 µM [15]: 54%
- half-life [16]: 4.4 min
- IC50 [17]: 39 µM
- inhibition at 5 µM [18]: 99%
- IC50 [19]: 36 µM
- IC50 [20]: 0.296 µM
- IC50 [21]: 0.021 µM
- C0 at 8 h [22]: 6540 ng/mL
- IC50 [23]: > 1.25 µM
- IC50 [24]: 69 µM
- Papp B→A [25]: < 0.08 ×10⁻⁶ cm/s
